Literature values as cited in PMC7373161, “Impact of Food and Drink Administration Vehicles on Paediatric Formulation Performance: Part 1—Effects on Solubility of Poorly Soluble Drugs” (AAPS PharmSciTech, 2020).

## Nc1ccc(O)c(C(=O)O)c1 [mesalazine]
  isoelectric point (pI): 4.3 pH
